≈ marks a conversion by molar mass, not a printed value. Calls of active or inactive are those of the source. No cut-off for these calls is given here.
Assays:
[1] = Drug level in tibial marrow of New Zealand rabbit osteomyelitis model at 40 mg/kg, sc administered every 6 hrs for 1 week measured after 3 hrs post last dose; details: read-out: Drug uptake
[2] = Drug level in tibial marrow of New Zealand rabbit at 40 mg/kg, sc administered every 6 hrs for 1 week measured after 3 hrs post last dose; details: read-out: Drug uptake
[3] = Cmax in New Zealand rabbit osteomyelitis model at 40 mg/kg, sc administered every 6 hrs for 4 days; assay type: ADME, organism-based, Oryctolagus cuniculus; design: dose 40 mg/kg, route subcutaneous; details: in vivo
[4] = AUC in human at 500 mg, infusion up to 1 hr; details: plasma
Staphylococcus aureus [5] = experiment: Antimicrobial activity against methicillin-resistant Staphylococcus aureus infected in New Zealand rabbit osteomyelitis model assessed as improvement in extent of bone remodeling at 40 mg/kg, sc administered every 6 hrs for 4 weeks measured on week 2 posttreatment by radiographic analysis
[6] = Drug level in tibial matrix of New Zealand rabbit at 40 mg/kg, sc administered every 6 hrs for 1 week measured after 3 hrs post last dose; details: read-out: Drug uptake
Staphylococcus aureus [7] = experiment: Antimicrobial activity against methicillin-resistant Staphylococcus aureus infected in New Zealand rabbit osteomyelitis model assessed as improvement in rate of bone reconstruction at 40 mg/kg, sc administered every 6 hrs for 4 weeks measured on week 6 postinfection by radiographic analysis; assay type: functional, organism-based; design: dose 40 mg/kg
[8] = AUC in New Zealand rabbit at 80 mg/kg, sc administered every 6 hrs for 4 days measured after 1 hr post first dose by RP-HPLC/MS/MS; assay type: ADME, organism-based, Oryctolagus cuniculus; design: time < 1 hr, dose 80 mg/kg, route subcutaneous; details: plasma
Oryctolagus cuniculus [9] = experiment: Toxicity in methicillin-resistant Staphylococcus aureus-infected New Zealand rabbit osteomyelitis model assessed as body weight at 40 mg/kg, sc administered every 6 hrs for 4 days measured on week 2 postinfection (reference value: […] +/- […] kg); assay type: organism-based; details: in vivo
Oryctolagus cuniculus [10] = experiment: Toxicity in methicillin-resistant Staphylococcus aureus-infected New Zealand rabbit osteomyelitis model assessed as body weight at 40 mg/kg, sc administered every 6 hrs for 4 days measured on week 4 postinfection (reference value: […] +/- […] kg); assay type: organism-based; details: in vivo
Oryctolagus cuniculus [11] = experiment: Toxicity in methicillin-resistant Staphylococcus aureus-infected New Zealand rabbit osteomyelitis model assessed as body weight at 40 mg/kg, sc administered every 6 hrs for 4 days measured on week 6 postinfection (reference value: […] +/- […] kg); assay type: organism-based; details: in vivo
[12] = Cmax in New Zealand rabbit at 20 mg/kg, sc administered every 6 hrs for 4 days measured after 1 hr post first dose by RP-HPLC/MS/MS; assay type: ADME, organism-based, Oryctolagus cuniculus; design: dose 20 mg/kg, route subcutaneous; details: in vivo
[13] = AUC in New Zealand rabbit at 20 mg/kg, sc administered every 6 hrs for 4 days measured after 1 hr post first dose by RP-HPLC/MS/MS; assay type: ADME, organism-based, Oryctolagus cuniculus; design: time < 1 hr, dose 20 mg/kg, route subcutaneous; details: plasma
[14] = Plasma concentration in New Zealand rabbit osteomyelitis model at 40 mg/kg, sc administered every 6 hrs for 1 week measured after 3 hrs post last dose
Staphylococcus aureus [15] = experiment: Antimicrobial activity against methicillin-resistant Staphylococcus aureus infected in New Zealand rabbit osteomyelitis model assessed as improvement in extent of bone remodeling at 40 mg/kg, sc administered every 6 hrs for 4 weeks measured on week 8 postinfection by radiographic analysis; assay type: functional, organism-based; design: dose 40 mg/kg
[16] = Cmax in human at 500 mg, infusion up to 1 hr; details: in vivo
Oryctolagus cuniculus [17] = experiment: Toxicity in methicillin-resistant Staphylococcus aureus-infected New Zealand rabbit osteomyelitis model assessed as body weight at 40 mg/kg, sc administered every 6 hrs for 4 days measured on week 8 postinfection (reference value: […] +/- […] kg); assay type: organism-based; details: in vivo
[18] = Drug level in tibial matrix of New Zealand rabbit osteomyelitis model at 40 mg/kg, sc administered every 6 hrs for 1 week measured after 3 hrs post last dose; details: read-out: Drug uptake
Staphylococcus aureus [19] = experiment: Antimicrobial activity against methicillin-resistant Staphylococcus aureus infected in New Zealand rabbit osteomyelitis model assessed as improvement in rate of bone reconstruction at 40 mg/kg, sc administered every 6 hrs for 4 weeks measured on week 2 posttreatment by radiographic analysis
Staphylococcus aureus [20] = experiment: Antimicrobial activity against methicillin-resistant Staphylococcus aureus infected in New Zealand rabbit osteomyelitis model assessed as improvement in rate of bone reconstruction at 40 mg/kg, sc administered every 6 hrs for 4 weeks measured on week 8 postinfection by radiographic analysis; assay type: functional, organism-based; design: dose 40 mg/kg
Staphylococcus aureus [21] = experiment: Antimicrobial activity against Staphylococcus aureus 168-1 isolated from osteomyelitis patient by broth macrodilution method; assay type: functional
[22] = Cmax in New Zealand rabbit at 80 mg/kg, sc administered every 6 hrs for 4 days measured 16th dose by RP-HPLC/MS/MS; assay type: ADME, organism-based, Oryctolagus cuniculus; design: dose 80 mg/kg, route subcutaneous; details: in vivo
[23] = Cmin in New Zealand rabbit at 20 mg/kg, sc administered every 6 hrs for 4 days measured after 1 hr post first dose by RP-HPLC/MS/MS; assay type: ADME, organism-based, Oryctolagus cuniculus; design: dose 20 mg/kg, route subcutaneous; details: New Zealand, in vivo, read-out: Cmin
[24] = Cmax in New Zealand rabbit at 20 mg/kg, sc administered every 6 hrs for 4 days measured 16th dose by RP-HPLC/MS/MS; assay type: ADME, organism-based, Oryctolagus cuniculus; design: dose 20 mg/kg, route subcutaneous; details: in vivo
Staphylococcus aureus [25] = experiment: Antimicrobial activity against methicillin-resistant Staphylococcus aureus infected in New Zealand rabbit osteomyelitis model assessed as improvement in extent of bone remodeling at 40 mg/kg, sc administered every 6 hrs for 4 weeks measured on week 6 postinfection by radiographic analysis; assay type: functional, organism-based; design: dose 40 mg/kg
[26] = Cmax in New Zealand rabbit at 80 mg/kg, sc administered every 6 hrs for 4 days measured after 1 hr post first dose by RP-HPLC/MS/MS; assay type: ADME, organism-based, Oryctolagus cuniculus; design: dose 80 mg/kg, route subcutaneous; details: in vivo
[27] = Ratio of AUC to MIC in methicillin-resistant Staphylococcus aureus infected New Zealand rabbit model osteomyelitis at 30 mg/kg, sc administered every 12 hrs for 4 weeks; assay type: functional; details: route subcutaneous
Staphylococcus aureus [28] = experiment: Antimicrobial activity against methicillin-resistant Staphylococcus aureus infected in New Zealand rabbit osteomyelitis model assessed as improvement in rate of bone reconstruction at 30 mg/kg, sc administered every 12 hrs for 4 weeks measured on week 8 postinfection radiographic analysis; assay type: functional, organism-based; design: dose 30 mg/kg
Staphylococcus aureus [29] = experiment: (§1) Antimicrobial activity against methicillin-resistant Staphylococcus aureus infected in New Zealand rabbit osteomyelitis model assessed as bacterial count per gram of tibial marrow at 30 mg/kg, sc administered every 12 hrs for 4 weeks measured on week 8 postinfection (reference value: 1.12 +/- 10^9 CFU/g); assay type: functional; details: route subcutaneous
Staphylococcus aureus [30] = experiment: Antimicrobial activity against methicillin-resistant Staphylococcus aureus infected in New Zealand rabbit osteomyelitis model assessed as improvement in extent of bone remodeling at 30 mg/kg, sc administered every 12 hrs for 4 weeks measured on week 2 postinfection radiographic analysis; assay type: functional, organism-based; design: dose 30 mg/kg
Staphylococcus aureus [31] = experiment: as §1, with “matrix” for “marrow”, “1.04” for “1.12”, “2.63” for “10^9”; assay type: functional; details: route subcutaneous
Staphylococcus aureus [32] = experiment: Antimicrobial activity against methicillin-resistant Staphylococcus aureus infected in New Zealand rabbit osteomyelitis model assessed as improvement in extent of bone remodeling at 30 mg/kg, sc administered every 12 hrs for 4 weeks measured on week 6 postinfection radiographic analysis; assay type: functional, organism-based; design: dose 30 mg/kg
Staphylococcus aureus [33] = experiment: Antimicrobial activity against methicillin-resistant Staphylococcus aureus infected in New Zealand rabbit osteomyelitis model assessed as improvement in rate of bone reconstruction at 30 mg/kg, sc administered every 12 hrs for 4 weeks measured on week 2 postinfection radiographic analysis; assay type: functional, organism-based; design: dose 30 mg/kg
[34] = AUC in New Zealand rabbit osteomyelitis model at 40 mg/kg, sc administered every 6 hrs for 4 days; assay type: ADME, organism-based, Oryctolagus cuniculus; design: dose 40 mg/kg, route subcutaneous; details: in vivo
Staphylococcus aureus [35] = experiment: Antimicrobial activity against methicillin-resistant Staphylococcus aureus infected in New Zealand rabbit osteomyelitis model assessed as improvement in rate of bone reconstruction at 30 mg/kg, sc administered every 12 hrs for 4 weeks measured on week 6 postinfection radiographic analysis; assay type: functional, organism-based; design: dose 30 mg/kg

Question: What does the source list for `Nc1nc(/C(=N/O)C(=O)N[C@@H]2C(=O)N3C(C(=O)O)=C(/C=C4\CCN([C@@H]5CCNC5)C4=O)CS[C@H]23)ns1` [CEFTOBIPROLE]?
Answer: concentration at 3 h [1]: 12800 ng/g; concentration at 3 h [2]: 2400 ng/g; Cmax [3]: 76800 ng/mL; AUC at 1 h [4]: 116000 ng·h/mL; Activity (Staphylococcus aureus [5]): Active; concentration at 3 h [6]: 300 ng/g; Activity (Staphylococcus aureus [7]): Active; AUC at 1 h [8]: 215000 ng·h/mL; Activity (Oryctolagus cuniculus [9]): 2.64 kg; Activity (Oryctolagus cuniculus [10]): 2.73 kg; Activity (Oryctolagus cuniculus [11]): 2.86 kg; Cmax [12]: 23800 ng/mL; AUC at 1 h [13]: 65300 ng·h/mL; concentration at 3 h [14]: 4900 ng/mL; Activity (Staphylococcus aureus [15]): Active; Cmax [16]: 34200 ng/mL; Activity (Oryctolagus cuniculus [17]): 3.07 kg; concentration at 3 h [18]: 900 ng/g; Activity (Staphylococcus aureus [19]): Active; Activity (Staphylococcus aureus [20]): Active; MBC (Staphylococcus aureus [21]): 6.25 µg/mL (≈ 11.7 µM); MIC (Staphylococcus aureus [21]): 0.39 µg/mL (≈ 0.73 µM); Cmax [22]: 58900 ng/mL; concentration at 1 h [23]: 2700 ng/mL; Cmax [24]: 22100 ng/mL; Activity (Staphylococcus aureus [25]): Active; Cmax [26]: 83300 ng/mL

Question: For `CN[C@H](CC(C)C)C(=O)N[C@H]1C(=O)N[C@@H](CC(N)=O)C(=O)N[C@H]2C(=O)N[C@H]3C(=O)N[C@H](C(=O)N[C@H](C(=O)O)c4cc(O)cc(O)c4-c4cc3ccc4O)[C@H](O)c3ccc(c(Cl)c3)Oc3cc2cc(c3O[C@@H]2O[C@H](CO)[C@@H](O)[C@H](O)[C@H]2O[C@H]2C[C@](C)(N)[C@H](O)[C@H](C)O2)Oc2ccc(cc2Cl)[C@H]1O` [VANCOMYCIN], which Cmax [3] is on record?
Answer: 6400 ng/mL

Question: And the RatioAUC/MIC [27]?
Answer: 148

Question: And the Activity (Staphylococcus aureus [28])?
Answer: Active

Question: And the CFU (Staphylococcus aureus [29])?
Answer: 0.64 ×10⁹ /g

Question: What about the Activity (Staphylococcus aureus [30]) of the same compound?
Answer: Active

Question: And the CFU (Staphylococcus aureus [31])?
Answer: 0.84 ×10⁷ /g

Question: And the Activity (Staphylococcus aureus [32])?
Answer: Active

Question: And the Activity (Staphylococcus aureus [33])?
Answer: Active

Question: And the AUC [34]?
Answer: 58000 ng·h/mL

Question: What about the MBC (Staphylococcus aureus [21]) of the same compound?
Answer: 6.25 µg/mL (≈ 4.31 µM)

Question: And the MIC (Staphylococcus aureus [21])?
Answer: 0.78 µg/mL (≈ 0.538 µM)

Question: What about the Activity (Staphylococcus aureus [35]) of the same compound?
Answer: Active
